Test system: LTB4 biosynthesis in human whole blood
Test: calcium ionophore-induced LTB4 biosynthesis in human whole blood
Type: cell-based
Conditions: at 13 nM; human heparinized whole blood, calcium ionophore A23187 challenge, LTB4 by radioimmunoassay; read-out: Inhibition of leukotriene biosynthesis
Protocol: Inhibition of leukotriene biosynthesis was evaluated in an assay, involving calcium ionophore-induced LTB4 biosynthesis expressed human whole blood. Human heparinized whole blood was preincubated with test compounds or vehicle for 15 min at 37° C. followed by calcium ionophore A23 187 challenge (final concentration of 8.3/μM) and the reaction terminated after 30 min by adding two volumes of methanol containing prostaglandin B2 as an internal recovery standard. The methanol extract was analyzed for LTB4 using a commercially available radioimmunoassay.

Q: For `CON=C(c1cccc(COc2ccc3c(-c4ccc(F)cc4)c4c(cc3c2)C(=O)OC4)c1)[C@H]1COC(C)(C)O1` [Example 1, O-methylE- and Z-(4"S)-7-[(3'-((2",2"-dimethyl-1",3"-dioxolan-4"-yl)oximinomethyl)phenyl)oxymethylene]-4-(4-fluorophenyl)naptho[2,3-c]furan-1(3H)-one], which inhibition at 0.013 µM is on record?
A: 52%

Source: patent publication US5446055A, “Polyether naphthalenic lignan lactones as inhibitors of 5-lipoxygenase” (Abbott Laboratories, priority 1994, dated 1995)
